Experiment [1] concerns the target T1, mAChE (Mus musculus, UniProt P21836). Nature of the experiment: biochemical. The conditions noted are these: IC 50-values of reversible inhibitors.
Experiment [2] has as its target T2, Mus musculus AChE (mAChE) (Mus musculus, UniProt P21836). The conditions noted are these: cited from earlier work.
Experiment [3] addresses T2, Mus musculus AChE (mAChE). The format is biochemical.
In experiment [4] the target is Aedes aegypti AChE1 (AaAChE1) (Aedes aegypti, UniProt Q6A2E2). The format is biochemical.
In experiment [5] the target is Anopheles gambiae AChE1 (AgAChE1) (Anopheles gambiae, UniProt Q869C3). The format is biochemical.
In experiment [6] the target is T3, Homo sapiens AChE (hAChE) (Homo sapiens, UniProt P22303). Conditions: cited from earlier work.
Experiment [7] addresses T4, Anopheles gambiae AChE1-G119S (Anopheles gambiae, UniProt Q869C3, G280S). The conditions noted are these: cited from earlier work.
Experiment [8] deals with T3, Homo sapiens AChE (hAChE). It counts as biochemical.
The target in experiment [9] is T4, Anopheles gambiae AChE1-G119S. It counts as biochemical.
The target in experiment [10] is T5, hAChE (Homo sapiens, UniProt P22303). Conditions: read-out: IC 50-values of reversible inhibitors; cited from earlier work.
For experiment [11], the target named is T1, mAChE. The conditions noted are these: read-out: IC 50-values of reversible inhibitors; cited from earlier work.
For experiment [12], the target named is T6, AaAChE1 (Aedes aegypti, UniProt Q6A2E2). Nature of the experiment: biochemical.
The target of experiment [13] is T7, AgAChE1-G119S (Anopheles gambiae, UniProt Q869C3, G280S). The conditions noted are these: cited from earlier work.
Experiment [14] deals with T6, AaAChE1. It counts as biochemical.
In experiment [15] the target is AgAChE1 (Anopheles gambiae, UniProt Q869C3). The format is biochemical.
The target of experiment [16] is T7, AgAChE1-G119S. It counts as biochemical.
The test system of experiment [17] is AChE1 vs vertebrate AChEs. The format is biochemical.
Experiment [18] addresses T1, mAChE. It counts as biochemical.
Experiment [19] addresses T5, hAChE. It counts as biochemical.

Structures are written as SMILES. Values joined by “and” are separate entries in the source; they are usually repeats but may differ in a detail not shown here. Equal entries are not always repeated. Where two headings read alike, the source gives them in different places. Marks after values point to notes of the source that are not given here. Where only a bound is given, the exact number is not on record here.

Turning to `CCN(CC)C(C)CN1c2ccccc2Sc2ccccc21` (centres unmarked) [Ethopropazine, ethopropazine], the IC50 in experiment [1] is approximately 1000 µM.

What is called Km is the concentration of substrate that gives half-maximal velocity. Consider `CC(=O)SCC[N+](C)(C)C` [ATChI, acetylthiocholine iodide], for which the Kcat is recorded as 2333^c s^-1 in experiment [2], 6167^d s^-1 in [6] and 4^b s^-1 in [7]. The Km in experiment [3] came out at 84 µM; in experiment [4], 25 µM; in experiment [5] it was 27 µM; in [8], 146 µM. For the same molecule, the Vmax in experiment [3] is reported as 725 (694–756) mA/min; in experiment [4], 406 (389–422) mA/min; in experiment [5], 528 (505–552) mA/min; in experiment [8], 821 (782–860) mA/min; in [9], 318 (310–326) mA/min. The “Vmax in percent of Vmax(ATChI)” value in experiment [3], in experiment [4], in experiment [5], in [8] and in [9] was 100^a percent of Vmax(ATChI) each time.

In the case of `CCN1CCC[C@H]1CNC(=O)c1cc([N+](=O)[O-])c(N(C)C)cc1OC` [C5685S], the IC50 was 1.4 µM in experiment [10] and 0.7 µM in experiment [11].

Consider `CCCC(=O)SCC[N+](C)(C)C` [BTChI, butyrylthiocholine iodide], for which the results for the Km in experiment [4] and in experiment [5] were 45 µM and 36 µM, respectively. The Vmax in experiment [4] was 38 (36–40) mA/min; in experiment [5], 58 (55–61) mA/min; in experiment [9], 34 (24–45) mA/min.

For the molecule `CCN1CCC[C@@H]1CNC(=O)c1cc([N+](=O)[O-])c(N(C)C)cc1OC` [C5685R], the values for the IC50 in experiment [10], in [11] and in experiment [12] were 1.3 µM, 0.7 µM and more than 30 µM, respectively.

On to `CNC(=O)Oc1ccccc1OC(C)C` [Propoxur, propoxur], for which, in experiment [13], the ki is 0,00015^b µM^-1 min^-1. Also, the “ki-values of covalent inhibitors” value was 1.20 (1.05–1.35) μM^-1 min^-1 and 1,2 μM^-1 min^-1 in [14]; 1.11 (1.02–1.21) μM^-1 min^-1 and 1,11 μM^-1 min^-1 in [15]. Further, in experiment [16], the “inhibition of the G119S mutant” value was “only marginal inhibition”. For the same molecule, in experiment [17], the “fold lower inhibition constants than eserine” value is recorded as 15–30 fold. Besides, the “fold more potent on AChE1 than on vertebrate AChEs (k i)” value in experiment [17] is listed as “approximately 10 fold”.

Take `CCC(=O)SCC[N+](C)(C)C` [PTChI, propionylthiocholine iodide]: the Km turned out to be 59 µM in experiment [3], 20 µM in experiment [4], 25 µM in experiment [5] and 150 µM in experiment [8]. The Vmax in experiment [3] was 367 (354–380) mA/min; in experiment [4], 266 (258–275) mA/min; in [5], 407 (393–421) mA/min; in experiment [8], 429 (415–442) mA/min; in experiment [9] it was 105 (87–123) mA/min. In addition, the “Vmax in percent of Vmax(ATChI)” value in experiment [3] is on record as 50,6^a percent of Vmax(ATChI); in experiment [4], 65,5^a percent of Vmax(ATChI); in [5], 77,1^a percent of Vmax(ATChI); in experiment [8], 52,3^a percent of Vmax(ATChI).

Regarding `CNC(=O)Oc1ccc2c(c1)[C@]1(C)CCN(C)[C@@H]1N2C` [Eserine, eserine], the “ki-values of covalent inhibitors” value in experiment [14] was 24.8 (18.1–31.5) μM^-1 min^-1 and 24,8 μM^-1 min^-1; in [15], 27.3 (23.8–30.8) μM^-1 min^-1 and 27,26 μM^-1 min^-1; in [18], 1.36 (1.15–1.56) μM^-1 min^-1 and 1,36 μM^-1 min^-1; in experiment [19], 2.66 (2.28–3.05) μM^-1 min^-1 and 2,66 μM^-1 min^-1; in experiment [16], 1.18 (0.63–1.72) μM^-1 min^-1 and 1,18 μM^-1 min^-1. In experiment [17], the “fold more potent on AChE1 than on vertebrate AChEs (k i)” value is “approximately 10 fold”.

These data come from PMC4598118 (PLoS ONE, 2015).
